Source: publication PMC7870638, “Toxicity of anticancer drugs in human placental tissue explants and trophoblast cell lines” (Archives of Toxicology, 2020)
Where two headings read alike, the source gives them in different places.

What was measured:
[1] = test system: progesterone release in syncytialised BeWo cells; test: Steroidogenesis (progesterone release) in syncytialised BeWo cells; format: cell-based, human; settings: 48 h; for progesterone release (in words): crizotinib 1 μM, paclitaxel 3 nM, cisplatin 100 μM, carboplatin 100 μM
Procedure: (§1) Two human choriocarcinoma-derived placental cell lines were used: JEG3 and BeWo (ATCC catalog numbers HTB-36 and CCL-98, respectively). JEG3 cells were cultured in DMEM and Bewo cells in Ham’s F-12 K medium, supplemented with 10% fetal calf serum and 1% penicillin and streptomycin under a humidified 5% CO2/95% air atmosphere at 37 °C. Cells were passaged (JEG3: 1:10 twice a week; BeWo: 1:3 once a week) after trypsinization with 0.05% Trypsin–EDTA when cells reached approximately 80% confluency. For BeWo cells, the medium was renewed 3 times a week. To create syncytialised BeWo cells, regular BeWo cells were treated with 50 μM forskolin (Sigma-Aldrich, St. Louis, MO, USA) in 0.1% DMSO, to initiate syncytialisation. As forskolin increases the intracellular cAMP levels, it activates protein kinase A after which syncytialisation and fusion of trophoblasts occurs (Orendi et al. [2010]).
For doxorubicin, only two concentrations were tested. Conditioned medium, containing the secreted hormones, was collected after 48 h exposure to the TKIs and cytostatic drugs and stored at − 80 °C until analysis. To eliminate the influence of the varying cell densities between the wells, total protein content in each well was measured. Cells were washed twice with Hank’s buffered Salt Solution (HBSS) and lysed with 50 μL 1 M sodium hydroxide (NaOH). Subsequently, 10 μL of the lysate was mixed with 190 μL of 5 times diluted dye reagent (Biorad protein assay). The absorbance was measured at 595 nm using a Biorad Multiwell Plate reader. The quantities of protein in the samples were determined via a calibration curve of bovine serum albumin.
(§2) Progesterone and estrone concentrations in culture medium were determined by LC–MS/MS analysis using an Acquity UPLC (Waters, Milford, MA, USA) equipped with a C18 UPLC column (Acquity UPLC BEH C18, 2.1 × 50 mm, Milford, MA, USA, Waters) coupled to a Xevo TQ-S (Waters) triple quadrupole mass spectrometer. Progesterone-D9 was used as internal standard and calibration curves were made in the matrix. To precipitate proteins, methanol containing the internal standard was added to culture medium samples in a ratio 3:1 (MeOH:medium). Following subsequent centrifugation (13,000g for 3 min), 1 μl of the clear supernatant was injected into the LC–MS to quantify progesterone and estrone. Solvent A consisted of 0.2 mM NH4F in water and solvent B consisted of 0.2 mM NH4F in Acetonitrile:Methanol in a ratio of 75:25%. Separation was performed at a flow rate of 350 µl/min under the following gradient conditions: 0 min 60% eluent A, 3.0 min 0% eluent A, 4 min 0% eluent A, 5 min 60% eluent A. The effluent from the UPLC was passed directly into the electrospray ion source. Positive electrospray ionization was achieved using nitrogen as a desolation gas with ionization voltage at 600 V. The source temperature was set at 500 °C and argon was used as collision gas. The following SRM transitions were used: m/z 315.10 (parent ion) to m/z 69.9 and m/z 108.9 (both product ions) for progesterone, m/z 269.0 (parent ion) to m/z 144.9 and 158.9 (product ions) for estrone, and m/z 324.2 (parent ion) to m/z 99.9 and m/z 112.9 (product ions) for the internal standard d9-progesterone. We also attempted to quantify estradiol and estriol levels in the culture medium of both explants and cells, but these were below the detection limit.

[2] = test system: progesterone and estrone release in placental explants; test: Steroid (progesterone, estrone) release in placental explants, LC-MS/MS of culture medium; format: cell-based, human; settings: placental explants; for reduction in progesterone release (in words): 10 and 100 µM gefitinib, 100 μM imatinib, effects over time (Fig. S2A); for progesterone release relative to control (in words): 100 µM, 72 h exposure
Procedure: (§3) Term placentas, obtained from consenting women following uncomplicated pregnancies and delivered vaginally or by caesarean section, were used for all experiments. Approval of the Regional Committee on Research involving Human Subjects was obtained (File 2014-1397). Within 60 min after delivery, 1 cm^3 villous tissue samples were excised at random areas midway between the umbilical cord and distal edge of the placenta. To remove maternal blood, samples were carefully rinsed in sterile Dulbecco’s phosphate-buffered saline supplemented with calcium chloride and magnesium chloride (Sigma-Aldrich, St. Louis, MO, USA) which was kept at 37 °C. The villous tissue was cut into small pieces weighing approximately 5 mg, after which 4–6 pieces of tissue were cultured together in individual wells of a 6-well plate. The explants were cultured in 1.5 ml of RPMI-1640 culture medium (Gibco, USA) with 15% heat-inactivated fetal bovine serum, 1% penicillin streptomycin, 1% gentamicin, and 1% amphotericin B (Life Technologies, USA). Placental explant cultures were kept for 7 days at 37 °C in a humidified gas mixture of 5% CO2 and 95% air. The culture medium was renewed every 24 h.
Treatment with TKIs or cytostatic drugs was started at day four of culture to allow for the syncytiotrophoblasts to regenerate (Siman et al. [2001]). Explants were then incubated for 72 h with 1, 10 or 100 µM of all TKIs or cytostatic drugs mentioned above. […] For cisplatin and carboplatin, culture medium was used as a solvent. Culture medium was replaced every 24 h with new medium containing the original concentration of the drug. Supernatant was collected each day and stored at − 20 °C for hormone quantification.
as §2
Construction of graphs and data analysis were performed using Graphpad Prism version 8.4.2. MTT conversion and progesterone and estrone release in placental explants were normalized to tissue wet weight. To compare the effects on tissue viability and cell viability, the data were normalized to control conditions and mean differences were tested using an unpaired t test, a one-way ANOVA, or a two-way repeated measures ANOVA. […]

[3] = ref Gaver et al. [1988]; cited from earlier work
[4] = test system: placental villous explants; test: MTT assay in placental explants (tissue viability); format: cell-based, human; settings: 72 h exposure, 1, 10 or 100 µM
Procedure: as §3
(§4) Treatment with TKIs or cytostatic drugs was started at day four of culture to allow for the syncytiotrophoblasts to regenerate (Siman et al. [2001]). Explants were then incubated for 72 h with 1, 10 or 100 µM of all TKIs or cytostatic drugs mentioned above. […] Culture medium was replaced every 24 h with new medium containing the original concentration of the drug. Supernatant was collected each day and stored at − 20 °C for hormone quantification.
(§5) To evaluate tissue and cell viability, after 72 h of drug exposure, tissue explants were incubated for 4 h at 37 °C with 1 mM 3-(4,5-dimethylthiazol-2-yl)-[…] (MTT) in RPMI. After incubation, the medium was removed, the tissue in each well was weighed, and the explants were subsequently placed in 500 µL DMSO for 10 min to dissolve the formazan formed. After 10 min, the DMSO was transferred to a 96-well plate and absorbance was measured at 540 nm using a Biorad Multiwell Plate reader.
(§6) Construction of graphs and data analysis were performed using Graphpad Prism version 8.4.2. MTT conversion and progesterone and estrone release in placental explants were normalized to tissue wet weight. To compare the effects on tissue viability and cell viability, the data were normalized to control conditions and mean differences were tested using an unpaired t test, a one-way ANOVA, or a two-way repeated measures ANOVA. The change in progesterone release rate as compared to the baseline (at 0 h) was calculated for each well separately, after which data were normalized to control conditions. One-way ANOVA was used to assess effects at the 72 h time point only. The Bonferroni post hoc test was applied to compare treatment conditions with controls. Data are described as mean ± SD in Figs. 2 and 3 and as mean ± SEM in all other figures where comparisons of means between groups were made. The mean and SD or SEM were calculated from all individual results (three experiments performed in duplicate or triplicate wells, n = 6 or n = 9).

[5] = set-up: method as in Berveiller et al. [2018]; settings: in vivo; ref Berveiller et al. [2018]; cited from earlier work
[6] = test system: JEG-3, BeWo, and syncytialised BeWo cells; test: MTT assay, cell viability in all three trophoblast cell types; format: cell-based, human
Procedure: as §1
The cells were seeded in 96-well culture plates at a cell density of 1 × 10^4 cells/well and cultured for 24 h at 37 °C in a humidified atmosphere with 5% CO2 to allow for attachment. Subsequently, the cells were exposed to the TKIs and cytostatic drugs in concentrations ranging from 100 pM to 100 µM (triplicate). […] This is a minimum percentage DMSO, but required as cells required co-incubation with forskolin to syncytialise. Crizotinib 100 μM was used as positive control. After attachment, cells were incubated with the compounds for 48 h, after which the medium was removed and the cells were exposed to […] diluted in medium. After 3 h of incubation with MTT, the formazan crystals formed were solubilized in 50 μL DMSO. The absorbance of formazan was measured at 540 nm by a Biorad Multiwell Plate reader.

syncytialised BeWo cells = format: cell-based, human
Procedure: The cells were seeded in 96-well culture plates at a cell density of 1 × 10^4 cells/well and cultured for 24 h at 37 °C in a humidified atmosphere with 5% CO2 to allow for attachment. Subsequently, the cells were exposed to the TKIs and cytostatic drugs in concentrations ranging from 100 pM to 100 µM (triplicate). […] This is a minimum percentage DMSO, but required as cells required co-incubation with forskolin to syncytialise. Crizotinib 100 μM was used as positive control. […] The absorbance of formazan was measured at 540 nm by a Biorad Multiwell Plate reader.

[7] = test system: isolated third trimester primary trophoblasts; set-up: method as in Berveiller et al. [2018]; settings: ref Berveiller et al. [2018], read-out: concentration giving 50% reduction in cell viability; cited from earlier work
[8] = test system: undifferentiated BeWo cells; test: MTT assay, cell viability in undifferentiated BeWo cells; format: cell-based; settings: Homo sapiens, 48 h exposure, read-out: concentration giving 50% reduction in cell viability
Procedure: as §1
The cells were seeded in 96-well culture plates at a cell density of 1 × 10^4 cells/well and cultured for 24 h at 37 °C in a humidified atmosphere with 5% CO2 to allow for attachment. Subsequently, the cells were exposed to the TKIs and cytostatic drugs in concentrations ranging from 100 pM to 100 µM (triplicate). […] The absorbance of formazan was measured at 540 nm by a Biorad Multiwell Plate reader.

[9] = MTT assay in placental explants (tissue viability); format: cell-based, human; settings: female, human, term placental villous tissue explants, 100 µM, 72 h exposure, mean ± SEM, read-out: tissue viability, % of control
Procedure: as §3, §4, §5, §6

[10] = test system: progesterone release in BeWo cells; test: Progesterone release in BeWo cells in control conditions (forskolin-induced syncytialisation); format: cell-based; settings: Homo sapiens, 48 h, read-out: progesterone production, % of control
Procedure: Two human choriocarcinoma-derived placental cell lines were used: JEG3 and BeWo (ATCC catalog numbers HTB-36 and CCL-98, respectively). JEG3 cells were cultured in DMEM and Bewo cells in Ham’s F-12 K medium, supplemented with 10% fetal calf serum and 1% penicillin and streptomycin under a humidified 5% CO2/95% air atmosphere at 37 °C. Cells were passaged (JEG3: 1:10 twice a week; BeWo: 1:3 once a week) after trypsinization with 0.05% Trypsin–EDTA when cells reached approximately 80% confluency. For BeWo cells, the medium was renewed 3 times a week. […]
For doxorubicin, only two concentrations were tested. […] To eliminate the influence of the varying cell densities between the wells, total protein content in each well was measured. […] The absorbance was measured at 595 nm using a Biorad Multiwell Plate reader. The quantities of protein in the samples were determined via a calibration curve of bovine serum albumin.
Progesterone and estrone concentrations in culture medium were determined by LC–MS/MS analysis using an Acquity UPLC (Waters, Milford, MA, USA) equipped with a C18 UPLC column (Acquity UPLC BEH C18, 2.1 × 50 mm, Milford, MA, USA, Waters) coupled to a Xevo TQ-S (Waters) triple quadrupole mass spectrometer. […] Following subsequent centrifugation (13,000g for 3 min), 1 μl of the clear supernatant was injected into the LC–MS to quantify progesterone and estrone. […]

[11] = 50 µM, 24 h, 48 h and 72 h exposure starting at day 4

SMILES: Cc1ccc(NC(=O)c2ccc(CN3CCN(C)CC3)cc2)cc1Nc1nccc(-c2cccnc2)n1 [imatinib, Imatinib]
- activity at 10 µM ([1]; Homo sapiens, 10 µM, not statistically significant, read-out: progesterone release, % of control): 76 ± 9%
- reduction in progesterone release (in words) [2]: only statistically significant if effects over time were analyzed

SMILES: N.N.O=C([O-])C1(C(=O)[O-])CCC1.[Pt+2] [carboplatin]
- progesterone release (in words) ([1]; not statistically significant): slight induction of progesterone release
- plasma concentration (may be as high as) [3]: ≤ 100 µM

SMILES: CC(=O)O[C@H]1C(=O)[C@@]2(C)[C@H]([C@H](OC(=O)c3ccccc3)[C@]3(O)C[C@H](OC(=O)[C@H](O)[C@@H](NC(=O)c4ccccc4)c4ccccc4)C(C)=C1C3(C)C)[C@]1(OC(C)=O)CO[C@@H]1C[C@@H]2O [paclitaxel]
- effect on tissue viability (in words) [4]: moderately affected tissue viability, but this was not statistically significant
- progesterone release (in words) ([1]; not statistically significant): slight induction of progesterone release
- concentration in placental tissue compared to maternal levels at delivery [5]: ten-fold higher
- IC50 ([6]; Homo sapiens, all cell types (JEG-3, BeWo, syncytialised BeWo), 48 h exposure, read-out: concentration at which cell viability was reduced to 50% or less): 3 to 10 nM
- cytotoxicity in syncytialised BeWo cells compared to undifferentiated BeWo and JEG3 cells (in words) (syncytialised BeWo cells; 48 h exposure): consistently less cytotoxic in syncytialised BeWo cells
- IC50 [7]: 18 to 180 nM
- IC50 [8]: 1 to 3 nM

SMILES: N.N.[Cl][Pt][Cl] [cisplatin]
- progesterone release (in words) ([1]; not statistically significant): slight induction of progesterone release

SMILES: CCN(CC)CCNC(=O)c1c(C)[nH]c(/C=C2\C(=O)Nc3ccc(F)cc32)c1C [sunitinib, sunitinib malate]
- effect on tissue viability (in words) [4]: fully inhibited tissue viability
- activity at 1 µM ([1]; Homo sapiens, 1 µM, P < 0.05, read-out: progesterone release, % of control): 76 ± 6%
- activity at 3 µM ([1]; Homo sapiens, 3 µM, P < 0.001, read-out: progesterone release, % of control): 50 ± 4%
- progesterone release relative to control (in words) [2]: statistically significant reduction in progesterone release
- cytotoxicity in syncytialised BeWo cells compared to undifferentiated BeWo and JEG3 cells (in words) (syncytialised BeWo cells): inhibited cell viability at multiple concentrations to a lesser extent in syncytialised BeWo cells

SMILES: COc1cc2ncnc(Nc3ccc(F)c(Cl)c3)c2cc1OCCCN1CCOCC1 [gefitinib]
- viability at 72 h, 100 µM [9]: 24 ± 4%
- reduction in progesterone release (in words) [2]: only statistically significant if effects over time were analyzed

SMILES: C[C@@H](Oc1cc(-c2cnn(C3CCNCC3)c2)cnc1N)c1c(Cl)ccc(F)c1Cl [crizotinib, Crizotinib]
- effect on tissue viability (in words) [4]: fully inhibited tissue viability
- progesterone release (in words) ([1]; not statistically significant): slight induction of progesterone release
- progesterone release relative to control (in words) [2]: statistically significant reduction in progesterone release

SMILES: C=C[C@@]1(C)CC(=O)[C@]2(O)[C@@]3(C)[C@@H](O)CCC(C)(C)[C@@H]3[C@H](O)[C@H](OC(C)=O)[C@@]2(C)O1 [forskolin]
- activity at 50 µM ([10]; Forskolin 50 μM in 0.1% DMSO): 370 ± 50%
- activity at 50 µM ([10]; Forskolin 50 μM in 0.5% DMSO): 215 ± 12%
- estrone release (in words) [2, 11]: significant induction in estrone release
- progesterone release (in words) [2, 11]: not progesterone release
- effect on cell viability (in words) ([6]; JEG-3 or BeWo cells, 50 μM, 48 h incubation): did not alter cell viability
